Source: publication PMC2009384, “The carcinogenicity of polycyclic hydrocarbon epoxides in newborn mice” (British Journal of Cancer, 1975)

Legend:
[1] = test system: newborn Swiss mice; test: Experiment I: carcinogenicity in newborn mice, benz(a)anthracene vs its K region epoxide (s.c. injection, tumour incidence to 70-75 weeks)
From the text: (§1) Br. J. Cancer (1975) 31, 182 THE CARCINOGENICITY OF POLYCYCLIC HYDROCARBON EPOXIDES IN NEWBORN MICE P. L. GROVER, P. SIMS, B. C. V. MITCHLEY AND F. J. C. ROE From the Chester Beatty Research Institute, Institute of Cancer Research, Royal Cancer Hospital, Fulham Road, London, SW3 6JB Received 9 August 1974. […] THE HYPOTHESIS that the carcino- genicity of polycyclic hydrocarbons is associated with the formation of epoxide metabolites (Grover, Hewer and Sims, 1971, 1972; Keysell et al., 1973) is sup- ported by some experimental evidence but remains unproven. […] The epoxides can also act as alkylating agents (Grover and Sims, 1970) and as mutagens (Ames, Sims and Grover, 1972; Huberman et al., 1971; Cookson, Sims and Grover, 1971; Fahmy and Fahmy, 1973). […] The newborn mouse, which is susceptible to carcinogenic polycyclic hydrocarbons (Roe, Rowson and Salaman, 1961; Roe, Mitchley and Walters, 1963; Walters and Roe, 1964, 1966) can be considered as a convenient source of several types of rapidly dividing cells. Consequently we have tested the K region epoxides derived from phenanthrene, benz(a)anthracene, 7-methylbenz(a)anthracene, dibenz(a,h)- anthracene, chrysene and 3-methylchol- anthrene, together with some of the CARCINOGENICITY OF POLYCYCLIC HYDROCARBON EPOXIDES IN MICE 183 parent hydrocarbons, for carcinogenicity using newborn mice. This paper presents the results that were obtained in these experiments. MATERIALS AND METHODS The polycyclic hydrocarbon epoxides, phenanthrene 9,10-oxide, benz(a)anthracene 5,6-oxide, 7-methylbenz(a)anthracene 5,6- oxide, dibenz(a,h)anthracene 5,6-oxide, chry- sene 5,6-oxide and 3-methylcholanthrene 11,12-oxide were prepared from the parent hydrocarbons (Newman and Blum, 1964; Boyland and Sims, 1965; Sims 1966). Two experiments were undertaken fol- lowing similar protocols. For each experi- ment Swiss mice from a specific pathogen- free colony were time mated so as to produce a large number of litters over the course of 2 or 3 days. […] Test compounds were suspended in poly- ethylene glycol (PEG) 400 and injections of 0-02 ml of the suspension were given by introducing a 25 gauge hypodermic needle through the skin near the root of the tail and threading it subcutaneously to deliver the injected material in the interscapular region. Injections were given to every mouse on the first day or first 3 days of life. The details of treatments and numbers of mice of each sex in each group are shown in Table I (Experiment I) and Table II (Ex- periment II). Surviving mice were weaned when they w ere 21 days old. Thereafter, males and females w ere separated and housed 6 per cage in metal boxes. A mixture of sawdust and wood shavings was used as bedding. The mice were fed on a standard cubed diet (Formulation 86 from C. Holdman and Sons (Plow co Feeds), Byers Lane, South Godstone, Surrey) and water was given ad libitum. Mice were inspected daily, and at weekly intervals they were weighed and palpated for tumours and other lesions. […] The experiment was terminated when surviving mice were between 70 and 75 weeks old. A full routine post- mortem examination, which included disten- sion of the urinary bladder with fixative, was carried out. The number of lesions thought to be neoplasms and the size of the largest such lesion in each organ affected were recorded. All tissues with suspected neoplasms were fixed in Bouin's solution. Haematoxylin and eosin stained 5 µm paraffin wax sections were prepared and examined microscopically. RESULTS The results of the two experiments in terms of tumour incidence are sum- marized in […].

[2] = test system: newborn Swiss mice; test: Experiment II: carcinogenicity in newborn mice, chrysene, 7-methylbenz(a)anthracene and K region epoxides (s.c. injection, tumour incidence to 70-75 weeks); conditions: for No. of mice examined at p.m. at termination of experiment (70-75th week) with liver tumours / No. of mice examined at p.m. at termination of experiment (70-75th week) with lung tumours / No. of mice examined at p.m. at termination of experiment (70-75th week) with multiple liver tumours / No. of mice examined at p.m. at termination of experiment (70-75th week) with multiple lung tumours / No. of mice examined at p.m. at termination of experiment (70-75th week) with other tumours / No. of mice examined at p.m. from 50-70th week with liver tumours / No. of mice examined at p.m. from 50-70th week with lung tumours / No. of mice examined at p.m. from 50-70th week with other tumours / No. of survivors at 50 weeks / No. of survivors at 70 weeks: 100 µg per treatment; for No. of mice examined at p.m. at termination of experiment (70-75th week) with liver tumours / No. of mice examined at p.m. at termination of experiment (70-75th week) with lung tumours / No. of mice examined at p.m. at termination of experiment (70-75th week) with multiple liver tumours / No. of mice examined at p.m. at termination of experiment (70-75th week) with multiple lung tumours / No. of mice examined at p.m. at termination of experiment (70-75th week) with other tumours / No. of mice examined at p.m. from 50-70th week with liver tumours / No. of mice examined at p.m. from 50-70th week with lung tumours / No. of mice examined at p.m. from 50-70th week with other tumours: 3 treatments; for No. of survivors at 50 weeks / No. of survivors at 70 weeks: 3 treatments (Days 0, 1 and 2) s.c. in PEG 400
From the text: as §1

[3] = females, 50 µg per treatment s.c. on Days 0, 1 and 2
[4] = females, 50 µg per treatment s.c. on Days 0, 1 and 2 in PEG 400
[5] = females, 100 µg per treatment s.c. on Days 0, 1 and 2
[6] = females, 100 µg per treatment s.c. on Days 0, 1 and 2 in PEG 400
[7] = females, 200 µg per treatment s.c. on Days 0, 1 and 2
[8] = females, 200 µg per treatment s.c. on Days 0, 1 and 2 in PEG 400
[9] = males, 50 µg per treatment s.c. on Days 0, 1 and 2
[10] = males, 50 µg per treatment s.c. on Days 0, 1 and 2 in PEG 400
[11] = males, 100 µg per treatment s.c. on Days 0, 1 and 2
[12] = males, 100 µg per treatment s.c. on Days 0, 1 and 2 in PEG 400
[13] = males, 200 µg per treatment s.c. on Days 0, 1 and 2
[14] = males, 200 µg per treatment s.c. on Days 0, 1 and 2 in PEG 400

## c1ccc2c(c1)-c1cc3ccccc3cc1[C@H]1O[C@@H]21 [Benz(a)anthracene 5,6-oxide, benz(a)anthracene 5,6-oxide]
[1]; 2 higher levels (Groups D and E, 3 x 200 and 3 x 100 µg)
  incidence of liver tumours in males: increase in incidence
[1]; [3]
  No. of mice examined at p.m. at termination of experiment (70th-75th week) with liver tumours: 0
  No. of mice examined at p.m. at termination of experiment (70th-75th week) with lung tumours: 2
  No. of mice examined at p.m. at termination of experiment (70th-75th week) with multiple liver tumours: 0
  No. of mice examined at p.m. at termination of experiment (70th-75th week) with multiple lung tumours: 0
  No. of mice examined at p.m. at termination of experiment (70th-75th week) with other tumours: 2
  No. of mice examined at p.m. from 50th-70th week with liver tumours: 0
  No. of mice examined at p.m. from 50th-70th week with lung tumours: 0
  No. of mice examined at p.m. from 50th-70th week with other tumours: 1
[1]; [4]
  No. of survivors at 50 weeks: 18
  No. of survivors at 70 weeks: 16
[1]; [5]
  No. of mice examined at p.m. at termination of experiment (70th-75th week) with liver tumours: 0
  No. of mice examined at p.m. at termination of experiment (70th-75th week) with lung tumours: 6
  No. of mice examined at p.m. at termination of experiment (70th-75th week) with multiple liver tumours: 0
  No. of mice examined at p.m. at termination of experiment (70th-75th week) with multiple lung tumours: 5
  No. of mice examined at p.m. at termination of experiment (70th-75th week) with other tumours: 1
  No. of mice examined at p.m. from 50th-70th week with liver tumours: 0
  No. of mice examined at p.m. from 50th-70th week with lung tumours: 0
  No. of mice examined at p.m. from 50th-70th week with other tumours: 0
[1]; [6]
  No. of survivors at 50 weeks: 24
  No. of survivors at 70 weeks: 22
[1]; [7]
  No. of mice examined at p.m. at termination of experiment (70th-75th week) with liver tumours: 2
  No. of mice examined at p.m. at termination of experiment (70th-75th week) with lung tumours: 1
  No. of mice examined at p.m. at termination of experiment (70th-75th week) with multiple liver tumours: 0
  No. of mice examined at p.m. at termination of experiment (70th-75th week) with multiple lung tumours: 0
  No. of mice examined at p.m. at termination of experiment (70th-75th week) with other tumours: 0
  No. of mice examined at p.m. from 50th-70th week with liver tumours: 0
  No. of mice examined at p.m. from 50th-70th week with lung tumours: 0
  No. of mice examined at p.m. from 50th-70th week with other tumours: 0
[1]; [8]
  No. of survivors at 50 weeks: 21
  No. of survivors at 70 weeks: 20
[1]; lowest level of dosage, Group F, 3 x 50 µg
  incidence of the 2 kinds of tumour (liver, lung) compared with vehicle group: not very different from that in Group G
[1]; [9]
  No. of mice examined at p.m. at termination of experiment (70th-75th week) with liver tumours: 4
  No. of mice examined at p.m. at termination of experiment (70th-75th week) with lung tumours: 5
  No. of mice examined at p.m. at termination of experiment (70th-75th week) with multiple liver tumours: 1
  No. of mice examined at p.m. at termination of experiment (70th-75th week) with multiple lung tumours: 1
  No. of mice examined at p.m. at termination of experiment (70th-75th week) with other tumours: 0
  No. of mice examined at p.m. from 50th-70th week with liver tumours: 0
  No. of mice examined at p.m. from 50th-70th week with lung tumours: 0
  No. of mice examined at p.m. from 50th-70th week with other tumours: 0
[1]; [10]
  No. of survivors at 50 weeks: 16
  No. of survivors at 70 weeks: 16
[1]; [11]
  No. of mice examined at p.m. at termination of experiment (70th-75th week) with liver tumours: 12
  No. of mice examined at p.m. at termination of experiment (70th-75th week) with lung tumours: 3
  No. of mice examined at p.m. at termination of experiment (70th-75th week) with multiple liver tumours: 8
  No. of mice examined at p.m. at termination of experiment (70th-75th week) with multiple lung tumours: 0
  No. of mice examined at p.m. at termination of experiment (70th-75th week) with other tumours: 0
  No. of mice examined at p.m. from 50th-70th week with liver tumours: 0
  No. of mice examined at p.m. from 50th-70th week with lung tumours: 1
  No. of mice examined at p.m. from 50th-70th week with other tumours: 0
[1]; [12]
  No. of survivors at 50 weeks: 27
  No. of survivors at 70 weeks: 26
[1]; [13]
  No. of mice examined at p.m. at termination of experiment (70th-75th week) with liver tumours: 5
  No. of mice examined at p.m. at termination of experiment (70th-75th week) with lung tumours: 2
  No. of mice examined at p.m. at termination of experiment (70th-75th week) with multiple liver tumours: 4
  No. of mice examined at p.m. at termination of experiment (70th-75th week) with multiple lung tumours: 1
  No. of mice examined at p.m. at termination of experiment (70th-75th week) with other tumours: 2
  No. of mice examined at p.m. from 50th-70th week with liver tumours: 2
  No. of mice examined at p.m. from 50th-70th week with lung tumours: 0
  No. of mice examined at p.m. from 50th-70th week with other tumours: 0
[1]; [14]
  No. of survivors at 50 weeks: 21
  No. of survivors at 70 weeks: 18
[1]; parenteral administration during early neonatal life
  activity in increasing liver and lung tumour incidence compared with parent compound: less active than its parent compound

## Cc1c2ccccc2cc2c1ccc1ccccc12 [7-Methylbenz(a)anthracene, reference compound]
[2]; 3 x 100 µg s.c., newborn, 7-methylbenz(a)anthracene pair
  incidence of lung tumours: slightly raised
[2]; females
  No. of mice examined at p.m. at termination of experiment (70-75th week) with liver tumours: 0
  No. of mice examined at p.m. at termination of experiment (70-75th week) with lung tumours: 1
  No. of mice examined at p.m. at termination of experiment (70-75th week) with multiple liver tumours: 0
  No. of mice examined at p.m. at termination of experiment (70-75th week) with multiple lung tumours: 1
  No. of mice examined at p.m. at termination of experiment (70-75th week) with other tumours: 1
  No. of mice examined at p.m. from 50-70th week with liver tumours: 0
  No. of mice examined at p.m. from 50-70th week with lung tumours: 7
  No. of mice examined at p.m. from 50-70th week with other tumours: 1
  No. of survivors at 50 weeks: 21
  No. of survivors at 70 weeks: 10
[2]; males
  No. of mice examined at p.m. at termination of experiment (70-75th week) with liver tumours: 1
  No. of mice examined at p.m. at termination of experiment (70-75th week) with lung tumours: 3
  No. of mice examined at p.m. at termination of experiment (70-75th week) with multiple liver tumours: 1
  No. of mice examined at p.m. at termination of experiment (70-75th week) with multiple lung tumours: 3
  No. of mice examined at p.m. at termination of experiment (70-75th week) with other tumours: 1
  No. of mice examined at p.m. from 50-70th week with liver tumours: 11
  No. of mice examined at p.m. from 50-70th week with lung tumours: 10
  No. of mice examined at p.m. from 50-70th week with other tumours: 0
  No. of survivors at 50 weeks: 23
  No. of survivors at 70 weeks: 4
[2]; neonatally injected, 3 x 100 µg
  activity in increasing the incidence of liver tumours in males compared with K region epoxide: more active than its K region epoxide
